This note sets out measurements from US20150291598A1 (NOVARTIS AG, priority 2012, published 2015).

The subject of the test is P. falciparum (NF54 or 3D7 strain). Briefly: Assay for P. falciparum proliferation in infected human blood cells (SYBR Green). The format is cell-based, Plasmodium falciparum. Conditions: Plasmodium falciparum, Erythrocyte. As for the experimental part: Assay for P. falciparum Proliferation in Infected Human Blood Cells
Compounds of the invention can be assayed to measure their capacity to inhibit proliferation of P. falciparum parasitemia in infected red blood cells. This parasite proliferation assay measures the increase in parasite DNA content using a DNA intercalating dye, SYBR Green® (INVITROGEN®) which has a high affinity for double stranded DNA.
NF54 or 3D7 P. falciparum strain is grown in complete culturing media until parasitemia reaches 3% to 8% with O+ human erythrocytes. […] 20 μl of screening media is dispensed into 384 well assay plates. 50 nl of compounds of the invention (in DMSO), including antimalarial controls (mefloquine, pyrimethamine and artemisinin), are then transferred into the assay plates, as well as DMSO alone to serve as a negative control for inhibition. Then 30 μl of a suspension of a NF54 or 3D7 P. falciparum infected erythrocytes in screening media is dispensed into the assay plates such that the final hematocrit is 2.5% with a final parasitemia of 0.3%. The plates are placed in a 37° C. incubator for 72 hours in a low oxygen environment containing 93% N2, 4% CO2, and 3% O2 gas mixture. 10 μl of lysis buffer (saponin, triton-X, EDTA) containing a 10× solution of SYBR Green I® in RPMI media is dispensed into the plates. The plates are lidded and kept at room temperature overnight for the lysis of the infected red blood cells. The fluorescence intensity is measured (excitation […], emission 530 nm) using the Envision™ system (Perkin Elmer).

The mark [1] stands for this setting: 72 h, NF54 or 3D7 infected human erythrocytes, 72 hours, read-out: EC50 (nM), inhibitory efficacy in delaying P. falciparum proliferation in infected human blood cells.

Read-outs that look alike come from different tables or passages of the source.

In the case of `CN(C(=O)c1cn2c(-c3ccc(C(F)(F)F)cc3)cnc2cn1)c1ccc(F)cn1` [Compound 63, N-(5-fluoropyridin-2-yl)-N-methyl-3-[4-(trifluoromethyl)phenyl]imidazo[1,2-a]pyrazine-6-carboxamide], the EC50 under setting [1] turned out to be 387 nM.

Regarding `CN(Cc1cn2c(-c3ccc(OC(F)F)cc3)cnc2cn1)c1ccc(Cl)cc1` [Compound 64, 4-chloro-N-({3-[4-(difluoromethoxy)phenyl]imidazo[1,2-a]pyrazin-6-yl}methyl)-N-methylaniline], under setting [1], the EC50 came out at 116 nM.

On to `COc1ccc(-c2cnc3cnc(C(=O)N(C)c4ccc(C#N)cc4)cn23)c(F)c1` [Compound 65, N-(4-cyanophenyl)-3-(2-fluoro-4-methoxyphenyl)-N-methylimidazo[1,2-a]pyrazine-6-carboxamide], for which the EC50 under setting [1] was 354 nM.

Turning to `CN(C(=O)c1cn2c(-c3ccc(C(F)(F)F)cc3)cnc2cn1)c1cncc(F)c1` [Compound 66, N-(5-fluoropyridin-3-yl)-N-methyl-3-[4-(trifluoromethyl)phenyl]imidazo[1,2-a]pyrazine-6-carboxamide], under setting [1], the EC50 is 5000 nM.

With `COc1ccc(-c2cnc3cnc(C(=O)N(C)c4ccc(C#N)cc4)cn23)cc1` [Compound 67, N-(4-cyanophenyl)-3-(4-methoxyphenyl)-N-methylimidazo[1,2-a]pyrazine-6-carboxamide], under setting [1], the EC50 came to 168 nM.

In the case of `CN(C(=O)c1cn2c(-c3ccc(C(F)(F)F)cc3)cnc2cn1)c1ccc(-c2nnn(C)n2)cc1` [Compound 68, N-methyl-N-[4-(2-methyl-2H-1,2,3,4-tetrazol-5-yl)phenyl]-3-[4-(trifluoromethyl)phenyl]imidazo[1,2-a]pyrazine-6-carboxamide], the EC50 under setting [1] is > 10000 nM.

Turning to `COc1ccc(-c2cnc3cnc(C(=O)N(C)c4ccc(F)cc4)cn23)cc1` [Compound 69, N-(4-fluorophenyl)-3-(4-methoxyphenyl)-N-methylimidazo[1,2-a]pyrazine-6-carboxamide], the EC50 under setting [1] stood at 85 nM.

As for `CN(C(=O)c1cn2c(-c3ccc(Cl)cc3)cnc2cn1)c1ccc(Cl)cc1Cl` [Compound 70, 3-(4-chlorophenyl)-N-(2,4-dichlorophenyl)-N-methylimidazo[1,2-a]pyrazine-6-carboxamide], the EC50 under setting [1] is 230 nM.

On to `CN(C(=O)c1cn2c(-c3ccc(Cl)c(F)c3)cnc2cn1)c1ccc(C#N)cc1` [Compound 71, 3-(4-chloro-3-fluorophenyl)-N-(4-cyanophenyl)-N-methylimidazo[1,2-a]pyrazine-6-carboxamide], for which the EC50 under setting [1] was found to be 1300 nM.

Consider `CN(C)CCN(C(=O)c1cn2c(-c3ccc(C(F)(F)F)cc3)cnc2cn1)c1ccc(C#N)cc1` [Compound 72, N-(4-cyanophenyl)-N-[2-(dimethylamino)ethyl]-3-[4-(trifluoromethyl)phenyl]imidazo[1,2-a]pyrazine-6-carboxamide], for which the EC50 was 439 nM under setting [1] and < 50 nM (infected human red blood cells, read-out: EC50, P. falciparum Proliferation Assay).

As for `CN(C(=O)c1cn2c(-c3ccc(C(F)(F)F)cc3)cnc2cn1)c1ccccc1Cl` [Compound 73, N-(2-chlorophenyl)-N-methyl-3-[4-(trifluoromethyl)phenyl]imidazo[1,2-a]pyrazine-6-carboxamide], the EC50 under setting [1] stood at 624 nM.

As for `CN(C(=O)c1cn2c(-c3ccc(-c4nnc(N)s4)cc3)cnc2cn1)c1ccc(C#N)cc1` [Compound 74, 3-[4-(5-amino-1,3,4-thiadiazol-2-yl)phenyl]-N-(4-cyanophenyl)-N-methylimidazo[1,2-a]pyrazine-6-carboxamide], under setting [1], the EC50 came out at 24 nM.

Consider `CN(C(=O)c1cn2c(-c3ccc(C(C)(F)F)cc3)cnc2cn1)c1ccc(C#N)cc1` [Compound 75, N-(4-cyanophenyl)-3-[4-(1,1-difluoroethyl)phenyl]-N-methylimidazo[1,2-a]pyrazine-6-carboxamide], for which the EC50 under setting [1] is 37 nM.

As for `CN(C)c1ccc(-c2cnc3cnc(C(=O)N(C)c4ccc(C#N)cc4)cn23)cc1` [Compound 77, N-(4-cyanophenyl)-3-[4-(dimethylamino)phenyl]-N-methylimidazo[1,2-a]pyrazine-6-carboxamide], the EC50 under setting [1] was found to be 116 nM.

In the case of `CN(C(=O)c1cn2c(-c3ccc(C(F)(F)F)cc3)cnc2cn1)c1ccc(Cl)nc1` [Compound 78, N-(6-chloropyridin-3-yl)-N-methyl-3-[4-(trifluoromethyl)phenyl]imidazo[1,2-a]pyrazine-6-carboxamide], the EC50 under setting [1] was 181 nM.

On to `CN(C(=O)c1cn2c(-c3ccc(C(F)(F)F)cc3)cnc2cn1)c1ccc(F)nc1` [Compound 79, N-(6-fluoropyridin-3-yl)-N-methyl-3-[4-(trifluoromethyl)phenyl]imidazo[1,2-a]pyrazine-6-carboxamide], for which the EC50 under setting [1] was 214 nM.

Consider `Cc1ccc(-c2cnc3cnc(C(=O)N(C)c4ccc(Cl)nc4)cn23)cc1` [Compound 80, -(6-chloropyridin-3-yl)-N-methyl-3-(4-methylphenyl)imidazo[1,2-a]pyrazine-6-carboxamide], for which the EC50 under setting [1] came to 258 nM.

`CN(C(=O)c1cn2c(-c3ccc(Cl)cc3)cnc2cn1)c1ccc(Cl)nc1` [Compound 81, -(4-chlorophenyl)-N-(6-chloropyridin-3-yl)-N-methylimidazo[1,2-a]pyrazine-6-carboxamide]: the EC50 under setting [1] came to 382 nM.

Consider `CN(C(=O)c1cn2c(-c3ccc(N4CCCC4)nc3)cnc2cn1)c1ccc(C#N)cc1` [Compound 82, N-(4-cyanophenyl)-N-methyl-3-[6-(pyrrolidin-1-yl)pyridin-3-yl]imidazo[1,2-a]pyrazine-6-carboxamide], for which the EC50 under setting [1] was found to be 2340 nM.

As for `CN(C(=O)c1cn2c(-c3ccc4c(cnn4C)c3)cnc2cn1)c1ccc(C#N)cn1` [Compound 83, N-(5-cyanopyridin-2-yl)-N-methyl-3-(1-methyl-1H-indazol-5-yl)imidazo[1,2-a]pyrazine-6-carboxamide], under setting [1], the EC50 stood at 1570 nM.

For the compound `CN(C(=O)c1cn2c(-c3ccc4c(ccn4C)c3)cnc2cn1)c1ccc(Cl)nc1` [Compound 84, N-(6-chloropyridin-3-yl)-N-methyl-3-(1-methyl-1H-indol-5-yl)imidazo[1,2-a]pyrazine-6-carboxamide], the EC50 under setting [1] turned out to be 1280 nM.

With `CN(C(=O)c1cn2c(-c3ccc(OC(F)F)cc3)cnc2cn1)c1ccc(C#N)cn1` [Compound 85, N-(5-cyanopyridin-2-yl)-3-[4-(difluoromethoxy)phenyl]-N-methylimidazo[1,2-a]pyrazine-6-carboxamide], the EC50 under setting [1] stood at 1100 nM.

Turning to `CN(C(=O)c1cn2c(-c3ccc(C(F)(F)F)cc3)cnc2cn1)c1cccc(F)n1` [Compound 86, N-(6-fluoropyridin-2-yl)-N-methyl-3-[4-(trifluoromethyl)phenyl]imidazo[1,2-a]pyrazine-6-carboxamide], under setting [1], the EC50 was found to be 2010 nM.

Regarding `CN(C(=O)c1cn2c(-c3ccc(-n4cccn4)cc3)cnc2cn1)c1ccc(C#N)cc1` [Compound 87, N-(4-cyanophenyl)-N-methyl-3-[4-(1H-pyrazol-1-yl)phenyl]imidazo[1,2-a]pyrazine-6-carboxamide], the EC50 under setting [1] is 104 nM.

Turning to `COc1ccc(N(C)C(=O)c2cn3c(-c4ccc(C(F)(F)F)cc4)cnc3cn2)cn1` [Compound 88, N-(6-methoxypyridin-3-yl)-N-methyl-3-[4-(trifluoromethyl)phenyl]imidazo[1,2-a]pyrazine-6-carboxamide], under setting [1], the EC50 is 1740 nM.
